The values that follow come from patent publication US20090171621A1, “MEASURING THE DISTANCE BETWEEN DEVICES” (KONINKLIJKE PHILIPS ELECTRONICS, N.V., priority 2004, published 2009).

The test system of data set [1] is ISA brown hens. Description: Egg laying performance of hens fed supplemented diet (egg weight, egg production). It is filed as in vivo. To be noted: for Egg weight / Egg production: 6 weeks; for Egg production: percent hen day production. How it is done:
(§1) Healthy ISA brown hens, 45-week old, were assigned randomly to each dietary group (control group, 8 birds; experimental group, 6 birds each). Each bird was placed in an individual cage in an environmentally controlled room (25° C., 50% relative humidity, 16L:8D). The hens were allowed for 2 weeks in which to adapt to the feed with no additives and the housing. Control birds were fed a commercial diet based on corn and soybean meal (Table 1), while birds in experimental groups were fed diets supplemented with 0.003 or 0.03% of compactin (Sigma Aldrich Korea) for 6 weeks. Feed and water were provided ad libitum throughout the experiment. Feed consumption, egg production and egg weight were recorded daily. Egg production was expressed as percent hen day production; (100×number of eggs laid)/(number of hens×days).
The effects of 0.003% or 0.03% compactin on the laying performance of 45-week old ISA brown hens were investigated (Table 2). Egg weight was maintained at more than 60 grams after 6 weeks of oral administrations of compactin at both doses. […] Maintenance of laying performance with compactin feeding is of contrast to the previous art in which atorvastatin reduced egg production down to 70% after feeding for 5-week.
Egg production and yolk cholesterol analysis was performed with 0.003 and 0.03% pravastatin administered group with the same procedure as described in Example 1 above. Hen performance was investigated by measuring egg weight and egg production as in Table 4. Pravastatin group had maintained above 80% of egg production rate after 6-week administration, same as control.
Egg production and yolk cholesterol analysis was performed with the same procedure as described in Example 1 above except 0.5 and 1% of Streptomyces cell precipitates and bioconversion reaction broth were administered instead of compactin. Hen performance was investigated by measuring egg weight and egg production as in Table 6.

Data set [2] concerns ISA brown hens. The data set is described as follows: Egg cholesterol analysis (yolk weight, yolk cholesterol by gas chromatography) of hens fed supplemented diet. Format: in vivo. To be noted: for Cholesterol content / Cholesterol content change / Cholesterol concentration: 6 weeks; for Cholesterol content change: compared to control; for Cholesterol concentration: per gram of yolk; for Total yolk/egg cholesterol content, percentage change (reduction) compared to control: 0.03% in feed; for Egg york weight: 6 weeks (Table 5). How it is done:
as §1
For egg cholesterol analysis, eggs from each bird were collected and egg yolk was separated, weighed, and sampled for analysis. Lipids from eggs were extracted by the method of Folch et al. (1957). Briefly, one gram of sample was saponified with 3 mL of 33% KOH and incubated with 30 mL of 95% methanol in a 65° C. water bath for 90 min. After saponification, 10 mL hexane and 3 mL water were added, followed by vigorous shaking for 10 min. 5α-cholestan (Sigma C-8300) was used as an internal standard. Cholesterol content was determined by a gas chromatography (Shimadzu, Japan) using column VB-1 (30 m×0.25 mm×0.25 μm, VICI Inc.) with a split ratio of 100:1 and nitrogen as carrier gas for a column flow rate of 0.54 mL/min. Injector, column, and detector temperatures were 275° C., 290° C., and 340° C., respectively.
Egg production and yolk cholesterol analysis was performed with 0.003 and 0.03% pravastatin administered group with the same procedure as described in Example 1 above. Hen performance was investigated by measuring egg weight and egg production as in Table 4. […]

The conditions of data set [3]: clinical trials / prescription drug development; cited from earlier work.
Data set [4] has as its system egg-laying chickens. To be noted: previous art, cited from earlier work.
For data set [5], the system named is egg-laying chickens. The settings on record: previous art, cited from earlier work. The source holds these as a separate data set.

With `CC[C@H](C)C(=O)O[C@H]1CCC=C2C=C[C@H](C)[C@H](CC[C@@H]3C[C@@H](O)CC(=O)O3)[C@H]21` [Compactin, compactin], in data set [1] (in vivo), the “Egg production compared to the control group” value is recorded as “did not cause any difference in egg production”. The “Total yolk cholesterol content, percentage change (reduction) compared to control” value in data set [2] (0.003% in feed, given without sign) came to 16%. Moreover, in data set [2] (0.003 weight % added to feed), the Cholesterol content was determined as 185 mg/egg, the Cholesterol content change is recorded as −16% and the Cholesterol concentration worked out at 11.2 ± 0.3 mg/g. The “Total yolk/egg cholesterol content, percentage change (reduction) compared to control” value in data set [2] (given without sign) was found to be 29%. Also, in data set [2] (0.03 weight % added to feed), the Cholesterol content is 156 mg/egg, the Cholesterol content change is reported as −29% and the Cholesterol concentration is on record as 10.5 ± 0.2 mg/g. Further, the Toxicity entry in data set [3] is recorded as “serious toxicity”.

Consider `CC(C)c1c(C(=O)Nc2ccccc2)c(-c2ccccc2)c(-c2ccc(F)cc2)n1CC[C@@H](O)C[C@@H](O)CC(=O)O` [atorvastatin], for which the “Cholesterol-lowering effect in eggs” value in data set [4] (0.03-0.06% fed for 5 weeks) was “satisfactory”. Besides, the “Egg production reduced down to” value in data set [5] (after feeding for 5-week) is 70%. In addition, in data set [5], the “Decrease of egg production rate compared to control” value is recorded as “more than 15%” and the “Effect of oral administration on egg production” value is given as “decrease egg production”.

Take `CC[C@H](C)C(=O)O[C@H]1C[C@@H](C)C=C2C=C[C@H](C)[C@H](CC[C@@H]3C[C@@H](O)CC(=O)O3)[C@H]21` [lovastatin]: the “Reduction of egg cholesterol level” value in data set [4] (at its high dose) is reported as 3-6%.

Consider pravastatin, for which, in data set [1] (0.003 weight % added to feed), the Egg weight is 62.5 ± 0.3 g and the Egg production is listed as 84%. In data set [1] (0.03 weight % added to feed), this molecule registered an Egg weight of 58.8 ± 0.7 g and an Egg production of 82%. For the same molecule, the “Egg production rate maintained” value in data set [1] (after 6-week administration, 0.003 and 0.03%) is listed as “above 80%”. Besides, in data set [2] (0.003 weight % added to feed), the Cholesterol content is given as 207 mg/egg, the Egg york weight is 16.5 ± 0.4 g, the Cholesterol content change is −6% and the Cholesterol concentration came to 12.5 ± 0.5 mg/g. Also, the “Total yolk/egg cholesterol content, percentage change (reduction) compared to control” value in data set [2] (given without sign) is on record as 24%. In data set [2] (0.03 weight % added to feed), the Cholesterol content stood at 167 mg/egg, the Egg york weight is listed as 16.1 ± 0.4 g, the Cholesterol content change is −24% and the Cholesterol concentration was determined as 10.4 ± 0.5 mg/g. In data set [3], the Toxicity result is given as “not toxic”.
